These results are taken from patent US7799775B2, “Pyrimidine derivatives” (ASKA Pharmaceutical Co., Ltd., priority 2004, dated 2010).

As usually defined, the inhibition is the share of the control response that was lost under treatment.

For test [1], the target named is T1, human 5-HT1A receptor (Homo sapiens, UniProt P08908).
T1 construct: purchased Packard Bioscience; host or cells: CHO cells (membrane preparation)
T1 sequence (P08908 1-422): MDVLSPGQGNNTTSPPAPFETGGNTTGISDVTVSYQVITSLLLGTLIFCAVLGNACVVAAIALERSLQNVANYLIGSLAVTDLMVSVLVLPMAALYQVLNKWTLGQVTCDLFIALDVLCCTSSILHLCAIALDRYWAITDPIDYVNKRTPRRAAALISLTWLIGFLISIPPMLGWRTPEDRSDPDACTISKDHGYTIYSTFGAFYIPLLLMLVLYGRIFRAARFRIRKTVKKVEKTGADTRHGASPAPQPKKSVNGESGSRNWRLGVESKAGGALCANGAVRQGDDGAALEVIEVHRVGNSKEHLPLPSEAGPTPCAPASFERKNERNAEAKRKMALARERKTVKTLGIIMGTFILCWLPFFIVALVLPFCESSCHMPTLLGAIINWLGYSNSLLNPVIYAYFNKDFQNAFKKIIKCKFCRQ
The test can be described thus: Affinity measurement of the compounds to human 5-HT1A receptor (in vitro), [3H]8-OH-DPAT binding. The note with it: test compound 100 nmols/L; [3H]8-OH-DPAT 0.25 nmols/L; CHO cell membrane expressing human 5-HT1A receptor; read-out: Percent Inhibition (%) on Each Receptor's Binding at 10^−7M, 5-HT1A. On the procedure: (1) Affinity Measurement of the Compounds to Human 5-HT1A Receptor (in Vitro)
CHO cell membrane sample in which human 5-HT1A receptor was expressed (purchased from Packard Bioscience) 0.25 mL (about 50 units) was added to 24.75 mL of incubation buffer solution A (an aqueous solution of a mixture of 50 mmols/L of Tris-hydrochloric acid, 10 mmols/L of magnesium sulfate, 0.5 mmols/L of EDTA and 0.1% ascorbic acid, whose pH was adjusted to 7.4 at 27° C. with 1N-aqueous sodium hydroxide solution), and labeled as membrane sample suspension A. Separately, each test compound was made into 270 μmols/L DMSO solution and diluted to a prescribed concentration with the incubation buffer solution A, to provide a compound solution.
A piece of polypropylene tube was charged with 20 μL of [^3H]8-OH-DPAT (8-hydroxy-2-(di-n-propylamino)tetralin; purchased from Daiichi Pure Chemicals Co., Ltd.) (The concentration of the [^3H]8-OH-DPAT had been advancedly adjusted to render its concentration in the reaction mixture to 0.25 nmols/L) and 20 μL of one of the compound solutions. Further 500 μL of the membrane sample suspension A was added into the tube, followed by 60 minutes' incubation at 27° C. The reaction was terminated by rapid filtration of the reaction mixture through GF/C filter which had been advancedly immersed in a solution formed by adding to the incubation buffer solution A polyethyleneimine to a concentration of 0.3%, using Brandel cell harvester. Then the filter was washed with about 5 mL of 50 mmols/L of Tris-hydrochloric acid which had been cooled to 4° C. The filter was once again washed after similar operation.
Residual radioactivity on the filter was measured with liquid scintillation counter (Aloka Co., LSC-5100). Percent inhibition (%) of each test compound to binding of [^3H]8-OH-DPAT to 5-HT1A receptor at a concentration of 0.25 nmols/L, i.e., affinity of each test compound to 5-HT1A receptor, can be calculated according to the following expression. The ratio of non-specific binding was calculated by measuring the radioactivity in case of using 8-OH-DPAT at a concentration of 10 μmols/L, with which value the measured value of each test compound was compensated.
(§1) Affinity of each test compound to 5-HT1A receptor and 5-HT3 receptor at a concentration of 100 nmols/L were as shown in the following Tables A-1 and A-2. BRL-43694 and tropisetron (ICS 205-930), which were used in measuring affinity of those compounds to 5-HT3 receptor, have the following structures: […]

In test [2] the target is T2, human 5-HT3 receptor (Homo sapiens, UniProt P46098).
T2 construct: purchased BIOLINKS K.K; host or cells: HEK-293 cells (membrane preparation)
T2 sequence (P46098 24-478): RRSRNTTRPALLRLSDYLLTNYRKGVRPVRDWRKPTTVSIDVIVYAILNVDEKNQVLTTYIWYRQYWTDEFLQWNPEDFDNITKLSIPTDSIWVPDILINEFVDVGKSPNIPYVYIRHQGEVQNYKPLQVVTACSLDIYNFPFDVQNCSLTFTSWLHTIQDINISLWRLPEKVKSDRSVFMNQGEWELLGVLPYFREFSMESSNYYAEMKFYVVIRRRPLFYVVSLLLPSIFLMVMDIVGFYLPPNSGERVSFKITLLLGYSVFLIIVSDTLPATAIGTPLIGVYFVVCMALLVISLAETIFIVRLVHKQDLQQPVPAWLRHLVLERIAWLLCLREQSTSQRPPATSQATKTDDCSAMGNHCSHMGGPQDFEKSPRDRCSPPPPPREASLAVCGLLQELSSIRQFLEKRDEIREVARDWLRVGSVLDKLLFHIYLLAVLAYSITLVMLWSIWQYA
Kind of test: Measurement of affinity to human 5-HT3 receptor (in vitro), [3H]BRL-43694 binding. As to conditions: test compound 100 nmols/L; [3H]BRL-43694 0.5 nmols/L; HEK-293 cell membrane expressing human 5-HT3 receptor; read-out: Percent Inhibition (%) on Each Receptor's Binding at 10^−7M, 5-HT3. The procedure:
(2) Measurement of Affinity of Each Test Compound to Human 5-HT3 Receptor (in Vitro):
HEK-293 cell membrane sample in which human 5-HT3 receptor was expressed (purchased from BIOLINKS K.K.) 0.05 mL (about 50 microassay) was added to 24.95 mL of incubation buffer solution B (an aqueous solution of a mixture of 50 mmols/L of Tris-hydrochloric acid, 5 mmols/L of magnesium chloride and 1 mmol/L of EDTA, whose pH was adjusted to 7.5 at 25° C. with 1N-aqueous sodium hydroxide solution) and homogenized, to provide a membrane sample suspension B. Separately, each test compound was made into 270 μmols/L of DMSO solution and diluted to a prescribed concentration with the incubation buffer solution B to provide a compound solution.
A piece of polypropylene tube was charged with 20 μL of [^3H]BRL-43694 (purchased from Daiichi Pure Chemicals Co., Ltd.) (The concentration of [^3H]BRL-43694 had been advancedly adjusted to render its concentration in the reaction mixture to 0.5 nmols/L.) and 20 μL of one of the compound solutions. Further 500 μL of the membrane sample suspension B was added into the tube, followed by 60 minutes' incubation at 25° C. The reaction was terminated by rapid filtration of the reaction mixture through GF/B filter which had been advancedly immersed in a solution formed by adding to the incubation buffer solution B polyethyleneimine to a concentration of 0.5%, using Brandel cell harvester. Then the filter was washed with about 5 mL of 50 mmols/L of Tris-hydrochloric acid which had been cooled to 4° C. The filter was once again washed after similar operation.
Residual radioactivity on the filter was measured with liquid scintillation counter (ALOKA CO., LTD. LSC-5100). Percent inhibition (%) of each test compound to binding of [^3H]BRL-43694 to 5-HT3 receptor at a concentration of 0.5 nmols/L, i.e., affinity of each test compound to 5-HT3 receptor, can be calculated according to the following expression. The ratio of non-specific binding was calculated by measuring the radioactivity in case of using tropisetron: (ICS 205-930) at a concentration of 10 μmols/L, with which value the measured value of each test compound was compensated.
as §1

`Nn1c(CCCCN2CCN(c3ccc4ccccc4n3)CC2)nc2sccc2c1=O` [Example 4-23, 3-amino-2-[4-(4-quinolin-2-ylpiperazin-1-yl)butyl]-3H-thieno[2,3-d]-pyrimidin-4-one]: the inhibition at 0.1 µM in test [1] came to 97%; in test [2], 79.3%.

Take `NNc1cccc2nc(CCCCN3CCN(c4ccc5ccccc5n4)CC3)n(N)c(=O)c12` [Example 4-28, 3-amino-5-hydrazino-2-[4-(4-quinolin-2-ylpiperazin-1-yl)butyl]-3H-quinazolin-4-one]: the inhibition at 0.1 µM worked out at 97.6% in test [1] and 45.1% in test [2].

As for `Cc1sc2nc(CCCCN3CCN(c4ccc5ccccc5n4)CC3)n(N)c(=O)c2c1C` [Example 4-35, 3-amino-5,6-dimethyl-2-[4-(4-quinolin-2-ylpiperazin-1-yl)butyl]-3H-thieno[2,3-d]pyrimidin-4-one], the inhibition at 0.1 µM in test [1] was 98%; in test [2], 96.9%.

Take `CC1CCCc2c1nc(CCCCN1CCN(c3ccc4ccccc4n3)CC1)n(N)c2=O` (centres unmarked) [Example 4-36, 3-amino-8-methyl-2-[4-(4-quinolin-2-ylpiperazin-1-yl)butyl]-5,6,7,8-tetrahydro-3H-quinazolin-4-one]: the inhibition at 0.1 µM in test [1] was found to be 90.4%; in test [2], 87.7%.

Turning to `Nn1c(CCCCN2CCN(c3ccc4ccccc4n3)CC2)nc2c(c1=O)CCCCC2` [Example 4-42, 3-amino-2-[4-(4-quinolin-2-ylpiperazin-1-yl)butyl]-5,6,7,8,9-pentahydro-3H-cyclohepta[d]pyrimidin-4-one], the inhibition at 0.1 µM in test [1] was 95.8%; in test [2] it was 58.5%.

As to `Nn1c(CCCCN2CCN(c3ccc4ccccc4n3)CC2)nc2ccc(F)cc2c1=O` [Example 4-56, 3-amino-6-fluoro-2-[4-(4-quinolin-2-ylpiperazin-1-yl)butyl]-3H-quinazolin-4-one], the inhibition at 0.1 µM in test [1] is 96.9%; in test [2], 50.2%.

`CC1CCc2nc(CCCCN3CCN(c4ccc5ccccc5n4)CC3)n(N)c(=O)c2C1` (centres unmarked) [Example 4-60, 3-amino-6-methyl-2-[4-(4-quinolin-2-ylpiperazin-1-yl)butyl]-5,6,7,8-tetrahydro-3H-quinazolin-4-one]: the inhibition at 0.1 µM stood at 96.9% in test [1] and 91.5% in test [2].

As for `CCC1CCc2nc(CCCCN3CCN(c4ccc5ccccc5n4)CC3)n(N)c(=O)c2C1` (centres unmarked) [Example 4-61, 3-amino-6-ethyl-2-[4-(4-quinolin-2-ylpiperazin-1-yl)butyl]-5,6,7,8-tetrahydro-3H-quinazolin-4-one], the inhibition at 0.1 µM in test [1] turned out to be 96.8%; in test [2], 88.7%.

In the case of `Nn1c(CCCCN2CCN(c3ccc4ccccc4n3)CC2)nc2c(c1=O)CC(O)CC2` (centres unmarked) [Example 4-70, 3-amino-6-hydroxy-2-[4-(4-quinolin-2-ylpiperazin-1-yl)butyl]-5,6,7,8-tetrahydro-3H-quinazolin-4-one], the inhibition at 0.1 µM in test [1] was determined as 96.1%; in test [2] it was 92.5%.

With `O=c1[nH]c(NCCCN2CCN(c3ccc4ccccc4n3)CC2)nc2c1CCCC2` [Example 5-1, 2-[3-(4-quinolin-2-ylpiperazin-1-yl)propylamino]-5,6,7,8-tetrahydro-3H-quinazolin-4-one], the figures for the inhibition at 0.1 µM in test [1] and in test [2] were 74% and 94.8%, respectively.

Consider `Cc1cc(N2CCN(CCCNc3nc4c(c(=O)[nH]3)CCCC4)CC2)nc2ccccc12` [Example 5-3, 2-[3-[4-(4-methylquinolin-2-yl)piperazin-1-yl]propylamino]-5,6,7,8-tetrahydro-3H-quinazolin-4-one], for which the inhibition at 0.1 µM turned out to be 76% in test [1] and 74.5% in test [2].

For the molecule `O=c1[nH]c(NCCCN2CCN(c3nc4ccccc4n4cccc34)CC2)nc2ccccc12` [Example 5-8, 2-[3-(4-pyrrolo[1,2-a]quinoxalin-4-ylpiperazin-1-yl)propylamino]-3H-quinazolin-4-one], the inhibition at 0.1 µM in test [1] turned out to be 54.5%; in test [2], 85.5%.

Regarding `Nn1c(NCCCN2CCN(c3ccc4ccccc4n3)CC2)nc2c(c1=O)CCCC2` [Example 6-2, 3-amino-2-[3-(4-quinolin-2-ylpiperazin-1-yl)propylamino]-5,6,7,8-tetrahydro-3H-quinazolin-4-one], the inhibition at 0.1 µM in test [1] worked out at 92.4%; in test [2] it was 39.3%.

Take `CCCn1c(CCCCN2CCN(c3ccc4ccccc4n3)CC2)nc2c(c1=O)CCCC2` [Example 7-3, 3-propyl-2-[4-(4-quinolin-2-ylpiperazin-1-yl)butyl]-5,6,7,8-tetrahydro-3H-quinazolin-4-one]: the inhibition at 0.1 µM in test [1] amounted to 85.8%; in test [2] it was 84.7%.

With `O=c1c2c(nc(CCCCN3CCN(c4ccc5ccccc5n4)CC3)n1Cc1ccccc1)CCCC2` [Example 7-4, 3-benzyl-2-[4-(4-quinolin-2-ylpiperazin-1-yl)butyl]-5,6,7,8-tetrahydro-3H-quinazolin-4-one], the inhibition at 0.1 µM in test [1] is 85%; in test [2], 61.2%.

Take `Cn1c(CCCN2CCN(c3ccc4ccccc4n3)CC2)nc2c(c1=O)CCCC2` [Example 7-5, 3-methyl-2-[3-(4-quinolin-2-ylpiperazin-1-yl)propyl]-5,6,7,8-tetrahydro-3H-quinazolin-4-one]: the inhibition at 0.1 µM in test [1] worked out at 53%; in test [2], 6.3%.
